Here are results for two molecules from PMC9038752, “Molecular mechanisms of bifunctional vitamin D receptor agonist-histone deacetylase inhibitor hybrid molecules in triple-negative breast cancer” (Scientific Reports, 2022).

In brackets after ≈: the same amount, converted by molar mass.

Series [1] relates to 4TO7 cells. Briefly: RNAseq gene expression profiling in 4TO7 cells. The format is cell-based, mouse. The settings on record: relative to control. As for the experimental part:
Cells were treated for 6 h to focus more on genes directly regulated by the VDR, or for 24 or 48 h to gain insight into longer-term effects on gene expression.
McGill Genome Centre performed a quality control before sequencing in paired-end at 50 M reads by Illumina NovaSeq 6000 S4 PE100. Sets of genes regulated in the different conditions were sent to us and downstream analysis were performed.
Table S1 and Table S2 : See Excel files with RNAseq results and analysis
48 hours prior to RNA extraction. Samples were prepared in triplicate and run on Illumina NovaSeq 6000 S4
PE100. For assessing differential gene expression for RNAseq data, the LIMMA package inR was used.
RNAseq results and statistical analyses from D, S, S+D, DK-406, and AM-193 conditions measured relative to
AM-193 for 6 or 24 hours prior to RNA extraction . Samples were prepared in triplicate and run on Illumina
NovaSeq 6000 S4 PE100. For assessing differential gene expression for RNAseq data, the LIMMA package in R was […]

The next series deals with 4T1 cells. Briefly: RealTime-Glo MT cell viability assay, 4T1. In kind it is cell-based, mouse. The conditions noted are these: 24 h. As for the experimental part: (§1) Figure 5 (a) and (b) Analysis of induced Cyp24a1 expression in 4TO7 (a) and 4T1 (b) cells to test for VDR agonism of DK-406 and heterocyclic analogues after 24 h treatment. c-e. Analysis of the cytotoxicity of hybrid compounds after 24 h using the MTGlo assay (see Methods for details) in 4TO7 (c), 4T1 (d) and MDA-MB-231 (e) cells. […] Each condition was compared to control. *: p ≤ 0.05, **: p ≤ 0.01, ***: p ≤ 0.001, ****: p ≤ 0.0001, ns: not significant.
(§2) As previously, we were interested in studying the efficacy of hybrids in models of TNBC. We used the 4T1 cell line[20] as well as the related TNBC cell line 4TO7, which was derived from the same mouse tumor as 4T1 cells in Balb/c mice[33]. 4TO7 cells readily form primary tumors. […] These lines also have the advantage that anti-tumor efficacy studies can be performed in Balb/c mice, which have intact immune systems. Compounds were initially tested for VDR agonist activity in 4TO7 cells by screening induction of the VDR target gene Cyp24a1. […]
(§3) The assay was performed to assess cell viability in order to determine analogue cytotoxicity. […] Luminescence was measured using a 1420 Luminescence Counter Victor Light (PerkinElmer), normalized to control, and plotted. […]

The next series relates to MB-MDA231 cells. Nature of the series: RealTime-Glo MT cell viability assay, MB-MDA231. In kind it is cell-based. The settings on record: human TNBC cell line MB-MDA231, 24 h. As for the experimental part:
as §1, §2, §3

For series [2], the system named is 4TO7 cells. Briefly: RealTime-Glo MT cell viability assay, 4TO7. The format is cell-based, mouse. The settings on record: 24 h. As for the experimental part:
as §1, §2, §3

Series [3] can be described thus: Aqueous solubility after sonication. The conditions noted are these: after sonication for 30 min. In kind it is physicochemical. From the text:
The synthesis of the B-ring series mirrored that of the A-ring series producing B-ring hybrids AM-191 (n = 1, 27a), AM-192 (n = 3, 27b), and AM-193 (n = 5, 27c) in 9 steps (Fig. 3).

Series [4] relates to 4T1 mouse model of triple negative breast cancer. The arrangement: method as in PMID 28847749. The conditions noted are these: aggressive 4T1 mouse model of TNBC; cited from earlier work.
Setting [5] is: 6 h, RNAseq Supplemental table 2, 1 µM AM-193, 10 µM DK-406, 100 nM 1,25D and SAHA.
[6] abbreviates: RNAseq Supplemental table 2, 1 µM AM-193, 10 µM DK-406, 100 nM 1,25D and SAHA.
[7] abbreviates: 6 h, RNAseq Supplemental table 1.
[8] abbreviates: 48 h, RNAseq Supplemental table 1.

For `CCC(CC)(c1ccc(OCCCCCC(=O)NO)cc1)c1ccc(OCC(O)C(C)(C)C)c(C)n1` (centres unmarked) [AM-193], in the series with 4TO7 cells [1] (setting [5]), the “Aaas 6h Log Fold” value is reported as -0.023, the “Aacs 6h Log Fold” value is listed as 0.016, the “Aagab 6h Log Fold” value is 0.124 and the “Aak1 6h Log Fold” value was 0.035. Also, the “Aamdc 6h Log Fold” value with 4TO7 cells [1] (setting [5]) is recorded as -0.120. In the series on 4TO7 cells [1] (setting [6]), the “Aaas 24h Log Fold” value is on record as -0.051, the “Aacs 24h Log Fold” value is 0.142, the “Aagab 24h Log Fold” value was determined as 0.131 and the “Aak1 24h Log Fold” value is given as 0.036. Further, the “Aamdc 24h Log Fold” value in the series with 4TO7 cells [1] (setting [6]) is listed as -0.210. Besides, in the series on 4T1 cells, the “cytotoxicity (MT-Glo viability)” value was “most potent compound tested” and the “potency in MT-Glo assay relative to DK-406” value is “at least tenfold”. For the same molecule, in the series with MB-MDA231 cells, the “cytotoxicity (MT-Glo viability)” value is on record as “potency of AM-193 as a cytotoxic agent was also confirmed”. Also, in the series with 4TO7 cells [2], the “cytotoxicity (MT-Glo viability)” value is reported as “most potent compound tested” and the “potency in MT-Glo assay relative to DK-406” value is recorded as “at least tenfold”. Also, in series [3], the “higher solubility in water compared to DK-367” value stood at 27%. For the same molecule, the solubility at 30 min in series [3] (water) is 2.43 µg/mL (≈ 4.85 µM).

Consider `CCC(CC)(c1ccc(C(=O)NCCCCCC(=O)NO)cc1)c1ccc(OCC(O)C(C)(C)C)c(C)c1` (centres unmarked) [DK-406], for which, in the series on 4TO7 cells [1] (setting [7]), the “Aaas 6h Log Fold” value was found to be 1.019, the “Aacs 6h Log Fold” value stood at 1.048, the “Aaed1 6h Log Fold” value is given as -1.030 and the “Aagab 6h Log Fold” value is listed as -1.033. For the same molecule, in the series on 4TO7 cells [1] (setting [7]), the “Aak1 6h Log Fold” value came to 1.122. Moreover, in the series on 4TO7 cells [1] (setting [5]), the “Aaas 6h Log Fold” value came to 0.00118, the “Aacs 6h Log Fold” value is -0.179, the “Aagab 6h Log Fold” value is reported as -0.076 and the “Aak1 6h Log Fold” value amounted to 0.090. Further, the “Aamdc 6h Log Fold” value in the series on 4TO7 cells [1] (setting [5]) is listed as -0.107. In the series on 4TO7 cells [1] (setting [6]), the “Aaas 24h Log Fold” value is -0.047, the “Aacs 24h Log Fold” value turned out to be 0.139, the “Aagab 24h Log Fold” value was found to be 0.108 and the “Aak1 24h Log Fold” value is given as 0.086. Moreover, in the series on 4TO7 cells [1] (setting [6]), the “Aamdc 24h Log Fold” value is -0.190. In the series on 4TO7 cells [1] (setting [8]), the “Aaas 48h Log Fold” value is reported as -1.331, the “Aacs 48h Log Fold” value was determined as 1.275, the “Aaed1 48h Log Fold” value is on record as -1.421 and the “Aagab 48h Log Fold” value was 1.489. Further, the “Aak1 48h Log Fold” value in the series with 4TO7 cells [1] (setting [8]) was -1.002. In series [4], the “tumor growth and metastasis” value was “reduced tumor growth and metastasis”.

For orientation: solubility means the dissolved amount per volume that the medium holds. A low value points to little dissolved substance.
